# According to PubChem BioAssay AID2060501 (Molecular Pharmacology Branch, DTP, NCI, 2025):
# System: 282377-053-R-J1-PDC complex spheroids, viability
# Assay: Anticancer human tumor 282377-053-R-J1-PDC patient-derived colon adenocarcinoma cell line growth inhibition [GQUAD]
# Details: for IC50: curve of first compound; for viability, T/C: stronger effect = lower value
# Outline: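 Tumor cells were grown as complex spheroids with HUVEC endothelial cells and mesenchymal stem cells as stroma. G-quadruplex stabilizers were combined with targeted agents over half-log dilutions from near the clinical Cmax, or from 10 microM.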
# [1] = second compound 0.0316 µM, first compound 0.0316 µM
# [2] = second compound 0.0316 µM, first compound 0.316 µM
# [3] = second compound 0.1 µM, first compound 0.0316 µM
# [4] = second compound 0.1 µM, first compound 0.316 µM
# [5] = second compound 0.316 µM, first compound 0.0316 µM
# [6] = second compound 0.316 µM, first compound 0.316 µM
# [7] = second compound 1 µM, first compound 0.0316 µM
# [8] = second compound 1 µM, first compound 0.316 µM
# [9] = second compound 3.16 µM, first compound 0.0316 µM
# [10] = second compound 3.16 µM, first compound 0.316 µM
# [11] = second compound 10 µM, first compound 0.0316 µM
# [12] = second compound 10 µM, first compound 0.316 µM
# 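Further: spheroids exposed to compounds for 7 days before readout.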
# 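Wherever viability, T/C is given: percent of vehicle DMSO control viability with 100% = untreated-like growth.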
smiles,measurement,setting,value
COc1ncnc(C2CC2)c1-c1ncc2cnn(Cc3ccc(-c4nc(C(F)(F)F)cn4C(C)C)cc3)c2n1 + Cc1cnc(CNC(=O)c2c(=O)c3ccc(N4CCCN(C)CC4)nc3n3c2sc2ccccc23)cn1,IC50,second compound 0.0316 µM,> 10 µM
same,IC50,second compound 0.1 µM,> 10 µM
same,IC50,second compound 0.316 µM,> 10 µM
same,IC50,second compound 1 µM,> 10 µM
same,IC50,second compound 3.16 µM,0.865 µM
same,IC50,second compound 10 µM,< 0.0316 µM
same,"viability, T/C",[1],108%
same,"viability, T/C","second compound 0.0316 µM, first compound 0.1 µM",107%
same,"viability, T/C",[2],119%
same,"viability, T/C","second compound 0.0316 µM, first compound 1 µM",92.6%
same,"viability, T/C","second compound 0.0316 µM, first compound 3.16 µM",123%
same,"viability, T/C","second compound 0.0316 µM, first compound 10 µM",95.3%
same,"viability, T/C",[3],121%
same,"viability, T/C","second compound 0.1 µM, first compound 0.1 µM",96.2%
same,"viability, T/C",[4],94.4%
same,"viability, T/C","second compound 0.1 µM, first compound 1 µM",100%
same,"viability, T/C","second compound 0.1 µM, first compound 3.16 µM",125%
same,"viability, T/C","second compound 0.1 µM, first compound 10 µM",93.5%
same,"viability, T/C",[5],105%
same,"viability, T/C","second compound 0.316 µM, first compound 0.1 µM",78.3%
same,"viability, T/C",[6],71.1%
same,"viability, T/C","second compound 0.316 µM, first compound 1 µM",76.2%
same,"viability, T/C","second compound 0.316 µM, first compound 3.16 µM",76.5%
same,"viability, T/C","second compound 0.316 µM, first compound 10 µM",82.3%
same,"viability, T/C",[7],60.6%
same,"viability, T/C","second compound 1 µM, first compound 0.1 µM",54.8%
same,"viability, T/C",[8],55.8%
same,"viability, T/C","second compound 1 µM, first compound 1 µM",52.8%
same,"viability, T/C","second compound 1 µM, first compound 3.16 µM",57.9%
same,"viability, T/C","second compound 1 µM, first compound 10 µM",55.9%
same,"viability, T/C",[9],53.3%
same,"viability, T/C","second compound 3.16 µM, first compound 0.1 µM",49.2%
same,"viability, T/C",[10],49.2%
same,"viability, T/C","second compound 3.16 µM, first compound 1 µM",49.7%
same,"viability, T/C","second compound 3.16 µM, first compound 3.16 µM",52.8%
same,"viability, T/C","second compound 3.16 µM, first compound 10 µM",47.1%
same,"viability, T/C",[11],41.1%
same,"viability, T/C","second compound 10 µM, first compound 0.1 µM",45.2%
same,"viability, T/C",[12],46.5%
same,"viability, T/C","second compound 10 µM, first compound 1 µM",46.6%
same,"viability, T/C","second compound 10 µM, first compound 3.16 µM",50.3%
same,"viability, T/C","second compound 10 µM, first compound 10 µM",35.6%
Cc1[nH]c2ccccc2c1CCNCc1ccc(/C=C/C(=O)NO)cc1 + Cc1cnc(CNC(=O)c2c(=O)c3ccc(N4CCCN(C)CC4)nc3n3c2sc2ccccc23)cn1,IC50,second compound 0.0316 µM,0.14 µM
same,IC50,second compound 0.1 µM,0.122 µM
same,IC50,second compound 0.316 µM,0.0637 µM
same,IC50,second compound 1 µM,0.0177 µM
same,IC50,second compound 3.16 µM,< 0.000999 µM
same,IC50,second compound 10 µM,< 0.000999 µM
same,"viability, T/C","second compound 0.0316 µM, first compound 0.000999 µM",86.4%
same,"viability, T/C","second compound 0.0316 µM, first compound 0.00316 µM",87.7%
same,"viability, T/C","second compound 0.0316 µM, first compound 0.00999 µM",129%
same,"viability, T/C",[1],95.2%
same,"viability, T/C","second compound 0.0316 µM, first compound 0.0999 µM",67.7%
same,"viability, T/C",[2],7.24%
same,"viability, T/C","second compound 0.1 µM, first compound 0.000999 µM",107%
same,"viability, T/C","second compound 0.1 µM, first compound 0.00316 µM",86.6%
same,"viability, T/C","second compound 0.1 µM, first compound 0.00999 µM",106%
same,"viability, T/C",[3],84.3%
same,"viability, T/C","second compound 0.1 µM, first compound 0.0999 µM",60.7%
same,"viability, T/C",[4],1.3%
same,"viability, T/C","second compound 0.316 µM, first compound 0.000999 µM",88.4%
same,"viability, T/C","second compound 0.316 µM, first compound 0.00316 µM",75.8%
same,"viability, T/C","second compound 0.316 µM, first compound 0.00999 µM",86.2%
same,"viability, T/C",[5],67.8%
same,"viability, T/C","second compound 0.316 µM, first compound 0.0999 µM",37.9%
same,"viability, T/C",[6],2.14%
same,"viability, T/C","second compound 1 µM, first compound 0.000999 µM",62.9%
same,"viability, T/C","second compound 1 µM, first compound 0.00316 µM",53.8%
same,"viability, T/C","second compound 1 µM, first compound 0.00999 µM",56.3%
same,"viability, T/C",[7],43%
same,"viability, T/C","second compound 1 µM, first compound 0.0999 µM",33%
same,"viability, T/C",[8],0.07%
same,"viability, T/C","second compound 3.16 µM, first compound 0.000999 µM",51.1%
same,"viability, T/C","second compound 3.16 µM, first compound 0.00316 µM",48%
same,"viability, T/C","second compound 3.16 µM, first compound 0.00999 µM",38.5%
same,"viability, T/C",[9],40.5%
same,"viability, T/C","second compound 3.16 µM, first compound 0.0999 µM",19.6%
same,"viability, T/C",[10],0.2%
same,"viability, T/C","second compound 10 µM, first compound 0.000999 µM",33.8%
same,"viability, T/C","second compound 10 µM, first compound 0.00316 µM",32.9%
same,"viability, T/C","second compound 10 µM, first compound 0.00999 µM",47%
same,"viability, T/C",[11],37%
same,"viability, T/C","second compound 10 µM, first compound 0.0999 µM",0.26%
same,"viability, T/C",[12],0.36%
